# Data published in paper PMC3096782 (Journal of medicinal chemistry, 2011).
# Entries after “also recorded” stand apart in the source; their conditions may differ.
# What was measured:
# [1] = biological target: human NK1 receptor (Homo sapiens, UniProt P25103); format: cell-based; settings: shift of the dose-response curve of SP, aequorin luminescence, CHO-NK1 cells
# [2] = acute pain models; chronic trials; cited from earlier work
# [3] = cited from earlier work
# Sequence of human NK1 receptor (P25103 whole entry): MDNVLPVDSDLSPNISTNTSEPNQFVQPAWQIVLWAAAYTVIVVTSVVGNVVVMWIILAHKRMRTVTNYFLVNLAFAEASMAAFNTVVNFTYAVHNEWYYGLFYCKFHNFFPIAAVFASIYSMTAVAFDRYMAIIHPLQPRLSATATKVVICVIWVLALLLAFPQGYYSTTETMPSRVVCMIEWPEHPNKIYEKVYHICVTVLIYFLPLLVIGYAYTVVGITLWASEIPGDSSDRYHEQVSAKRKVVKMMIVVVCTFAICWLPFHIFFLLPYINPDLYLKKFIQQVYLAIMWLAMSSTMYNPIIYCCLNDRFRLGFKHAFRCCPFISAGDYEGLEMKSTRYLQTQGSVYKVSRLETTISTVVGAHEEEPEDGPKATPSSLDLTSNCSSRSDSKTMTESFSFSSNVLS
Compound,NK1R antagonism (in words) [1],Antinociception and opioid-induced tolerance (in words) [2],Attenuation of neuropathic pain (in words) [3]
CC(=O)N[C@H]1Cc2c([nH]c3ccccc23)CN(CC(=O)N(C)Cc2cc(C(F)(F)F)cc(C(F)(F)F)c2)C1=O [28a],did not show any antagonist properties,,
CC(=O)N1Cc2[nH]c3ccccc3c2C[C@H]1C(=O)N(C)Cc1cc(C(F)(F)F)cc(C(F)(F)F)c1 [32a],did not show any antagonist properties,,
"CC(=O)N[C@H]1Cc2ccccc2CN(CC(=O)NCc2cc(C(F)(F)F)cc(C(F)(F)F)c2)C1=O [compound 19, Ac-(S)-Aba-Gly-NH-3′,5′-(CF3)2-Bn]",able to counteract the effect of SP; also recorded: moderate,,
"CC(=O)N[C@H]1Cc2ccccc2CN(CC(=O)N(C)Cc2cc(C(F)(F)F)cc(C(F)(F)F)c2)C1=O [compound 20, Ac-(S)-Aba-Gly-NMe-3′,5′-(CF3)2-Bn]",able to counteract the effect of SP and good,,
CC(=O)N1Cc2ccccc2C[C@H]1C(=O)NCc1cc(C(F)(F)F)cc(C(F)(F)F)c1 [compound 22],lack of antagonism,,
"CC(=O)N1Cc2ccccc2C[C@H]1C(=O)N(C)Cc1cc(C(F)(F)F)cc(C(F)(F)F)c1 [compound 23, Ac-Tic-NMe-3′,5′-(CF3)2-Bn]",able to counteract the effect of SP and good,,
CC(=O)N[C@H]1Cc2c([nH]c3ccccc23)CN(Cc2cc(C(F)(F)F)cc(C(F)(F)F)c2)C1=O [compound 30],did not show any antagonist properties,,
"H-Tyr-D-Ala-Gly-Phe-Met-Pro-Leu-Trp-NH-3′,5′-Bn(CF3)2 [compound 6]",,enhanced antinociception in acute pain models and prevention of opioid-induced tolerance in chronic trials,potently attenuate neuropathic pain without producing opioid-induced tolerance
"H-Tyr-D-Ala-Gly-Phe-Met-Pro-Leu-Trp-O-3′,5′-Bn(CF3)2 [compound 7]",,enhanced antinociception in acute pain models and prevention of opioid-induced tolerance in chronic trials,potently attenuate neuropathic pain without producing opioid-induced tolerance
